Results: US20170313828A1, “IN SITU-FORMING OF DENDRIMER HYDROGELS USING MICHAEL-ADDITION REACTION” (Virginia Commonwealth University, priority 2016, published 2017)

Assay: In vitro 5-FU release kinetics
Format: physicochemical
Conditions: from hydrogel of 1 wt % PAMAM G5-(NH2)128 and PEG diacrylate575 (FIG. 9)
Protocol: In Vitro Drug Release Kinetics. Drug release was performed on 5-FU loaded into DH-G5-0.5% (5-FU/DH-G5-0.5%). Briefly, Free 5-FU (300 μg) in PBS or DH-G5-0.5% containing 300 μg of 5-FU was transferred to dialysis bags (MWCO=500-1000 Da) and suspended in 30 mL of PBS in 50-mL centrifuge tubes. The tubes were maintained at 37° C. At predetermined time intervals up to 24 h, 1 mL of medium outside the dialysis bag was withdrawn, and the amount of drug released into the medium was analyzed on HPLC against a standard curve of 5-FU. After each sampling, 1 mL of fresh PBS was added to maintain a constant volume and sink condition. All experiments were performed in triplicate.

drug released in the first 3 hours: about 70%
Structure (SMILES): O=c1[nH]cc(F)c(=O)[nH]1 [fluorouracil]
